In patent US12077503B2, “Substituted cyclic amides and their use as herbicides” (FMC CORPORATION, priority 2015, dated 2024):

What was measured:
Assay type in all cases: in vivo
[1] = test system: giant foxtail (Setaria faberi); assay: Test G Pre-Emergence Protocol; settings: Setaria faberi, pre-emergence, 312 h, evaluated after 13 days; for pest or weed control at 15.625 g/ha: 15.625 g ai/ha; for pest or weed control at 15.625 g/ha / pest or weed control at 250 g/ha: read-out: Foxtail, Giant damage rating (100=total damage to plant; 0=no damage to plant); for pest or weed control at 62.5 g/ha: 62.5 g ai/ha, 100=total damage to plant, 0=no damage to plant, read-out: plant damage rating, Foxtail, Giant; for pest or weed control at 250 g/ha: 250 g ai/ha
In short: (§1)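 Pre-emergence spray, 15.625/62.5/250 g/ha, vehicle acetone:water 50:50 + 0.5% Tween 20, applied 1 d after sowing. Glasshouse 24/16° C, 14 h light, 65% RH, watered twice daily. Visual damage rating at 13 d, 0–100 scale.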

[2] = test system: ivy-leaved morning glory (Ipomoea hederacea); assay: Test G Pre-Emergence Protocol; settings: Ipomoea, pre-emergence, 312 h, evaluated after 13 days; for pest or weed control at 15.625 g/ha: 15.625 g ai/ha, read-out: Morning-glory, Ivy-leaved damage rating (100=total damage to plant; 0=no damage to plant); for pest or weed control at 62.5 g/ha: 62.5 g ai/ha, 100=total damage to plant, 0=no damage to plant, read-out: plant damage rating, Morningglory, Ivy-leaved; for pest or weed control at 250 g/ha: 250 g ai/ha, read-out: Morningglory, Ivy-leaved damage rating (100=total damage to plant; 0=no damage to plant)
In short: as §1

[3] = test system: velvetleaf (Abutilon theophrasti); assay: Test G Pre-Emergence Protocol; settings: Abutilon theophrasti, pre-emergence, 312 h, evaluated after 13 days; for pest or weed control at 15.625 g/ha: 15.625 g ai/ha; for pest or weed control at 15.625 g/ha / pest or weed control at 250 g/ha: read-out: Velvetleaf damage rating (100=total damage to plant; 0=no damage to plant); for pest or weed control at 62.5 g/ha: 62.5 g ai/ha, 100=total damage to plant, 0=no damage to plant, read-out: plant damage rating, Velvetleaf; for pest or weed control at 250 g/ha: 250 g ai/ha
In short: as §1

corn (Zea mays) [4] = assay: Test G Pre-Emergence Protocol; settings: Zea mays, pre-emergence, 312 h, evaluated after 13 days; for plant injury at 15.625 g/ha: 15.625 g ai/ha; for plant injury at 15.625 g/ha / plant injury at 250 g/ha: read-out: Corn damage rating (100=total damage to plant; 0=no damage to plant); for plant injury at 62.5 g/ha: 62.5 g ai/ha, 100=total damage to plant, 0=no damage to plant, read-out: plant damage rating, Corn; for plant injury at 250 g/ha: 250 g ai/ha
In short: as §1

[5] = test system: redroot pigweed (Amaranthus retroflexus); assay: Test G Pre-Emergence Protocol; settings: Amaranthus retroflexus, pre-emergence, 312 h, evaluated after 13 days; for pest or weed control at 15.625 g/ha: 15.625 g ai/ha; for pest or weed control at 15.625 g/ha / pest or weed control at 250 g/ha: read-out: Pigweed, Redroot damage rating (100=total damage to plant; 0=no damage to plant); for pest or weed control at 62.5 g/ha: 62.5 g ai/ha, 100=total damage to plant, 0=no damage to plant, read-out: plant damage rating, Pigweed, Redroot; for pest or weed control at 250 g/ha: 250 g ai/ha
In short: as §1

[6] = test system: barnyardgrass (Echinochloa crus-galli); assay: Test G Pre-Emergence Protocol; settings: Echinochloa crus-galli, pre-emergence, 312 h, evaluated after 13 days; for pest or weed control at 15.625 g/ha: 15.625 g ai/ha, read-out: Barnyard grass damage rating (100=total damage to plant; 0=no damage to plant); for pest or weed control at 62.5 g/ha: 62.5 g ai/ha, 100=total damage to plant, 0=no damage to plant, read-out: plant damage rating, Barnyardgrass; for pest or weed control at 250 g/ha: 250 g ai/ha, read-out: Barnyardgrass damage rating (100=total damage to plant; 0=no damage to plant)
In short: as §1

[7] = test system: giant foxtail (Setaria faberi); assay: Test G Post-Emergence Protocol; settings: Setaria faberi, post-emergence, 312 h; for pest or weed control at 15.625 g/ha: 15.625 g ai/ha, evaluated after 13 days (100=total damage to plant; 0=no damage to plant), read-out: Foxtail, Giant damage rating; for pest or weed control at 62.5 g/ha: 62.5 g ai/ha, read-out: Foxtail, Giant damage rating (100=total damage to plant; 0=no damage to plant); for pest or weed control at 62.5 g/ha / pest or weed control at 250 g/ha: evaluated after 13 days; for pest or weed control at 250 g/ha: 250 g ai/ha, read-out: damage to plant, Foxtail, Giant (100=total damage to plant; 0=no damage to plant)
In short: (§2)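 Scores run 0 (no damage) to 100 (total damage) and were taken 13 days after spraying. Plants had been raised in pots for 8 days under glasshouse control (24/16 °C, 14 h photoperiod, 65% humidity) and then treated at 15.625, 62.5 or 250 g/ha.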

[8] = test system: ivy-leaved morning glory (Ipomoea hederacea); assay: Test G Post-Emergence Protocol; settings: Ipomoea, post-emergence, 312 h; for pest or weed control at 15.625 g/ha: 15.625 g ai/ha, evaluated after 13 days (100=total damage to plant; 0=no damage to plant), read-out: Morningglory, Ivy-leaved damage rating; for pest or weed control at 62.5 g/ha: 62.5 g ai/ha, read-out: Morningglory, Ivy-leaved damage rating (100=total damage to plant; 0=no damage to plant); for pest or weed control at 62.5 g/ha / pest or weed control at 250 g/ha: evaluated after 13 days; for pest or weed control at 250 g/ha: 250 g ai/ha, read-out: damage to plant, Morningglory, Ivy-leaved (100=total damage to plant; 0=no damage to plant)
In short: as §2

[9] = test system: velvetleaf (Abutilon theophrasti); assay: Test G Post-Emergence Protocol; settings: Abutilon theophrasti, post-emergence, 312 h; for pest or weed control at 15.625 g/ha: 15.625 g ai/ha, evaluated after 13 days (100=total damage to plant; 0=no damage to plant), read-out: Velvetleaf damage rating; for pest or weed control at 62.5 g/ha: 62.5 g ai/ha, read-out: Velvetleaf damage rating (100=total damage to plant; 0=no damage to plant); for pest or weed control at 62.5 g/ha / pest or weed control at 250 g/ha: evaluated after 13 days; for pest or weed control at 250 g/ha: 250 g ai/ha, read-out: damage to plant, Velvetleaf (100=total damage to plant; 0=no damage to plant)
In short: as §2

corn (Zea mays) [10] = assay: Test G Post-Emergence Protocol; settings: Zea mays, post-emergence, 312 h; for plant injury at 15.625 g/ha: 15.625 g ai/ha, evaluated after 13 days (100=total damage to plant; 0=no damage to plant), read-out: Corn damage rating; for plant injury at 62.5 g/ha: 62.5 g ai/ha, read-out: Corn damage rating (100=total damage to plant; 0=no damage to plant); for plant injury at 62.5 g/ha / plant injury at 250 g/ha: evaluated after 13 days; for plant injury at 250 g/ha: 250 g ai/ha, read-out: damage to plant, Corn (100=total damage to plant; 0=no damage to plant)
In short: as §2

[11] = test system: redroot pigweed (Amaranthus retroflexus); assay: Test G Post-Emergence Protocol; settings: Amaranthus retroflexus, post-emergence, 312 h; for pest or weed control at 15.625 g/ha: 15.625 g ai/ha, evaluated after 13 days (100=total damage to plant; 0=no damage to plant), read-out: Pigweed, Redroot damage rating; for pest or weed control at 62.5 g/ha: 62.5 g ai/ha, read-out: Pigweed, Redroot damage rating (100=total damage to plant; 0=no damage to plant); for pest or weed control at 62.5 g/ha / pest or weed control at 250 g/ha: evaluated after 13 days; for pest or weed control at 250 g/ha: 250 g ai/ha, read-out: damage to plant, Pigweed, Redroot (100=total damage to plant; 0=no damage to plant)
In short: as §2

[12] = test system: barnyardgrass (Echinochloa crus-galli); assay: Test G Post-Emergence Protocol; settings: Echinochloa crus-galli, post-emergence, 312 h; for pest or weed control at 15.625 g/ha: 15.625 g ai/ha, evaluated after 13 days (100=total damage to plant; 0=no damage to plant), read-out: Barnyardgrass damage rating; for pest or weed control at 62.5 g/ha: 62.5 g ai/ha, read-out: Barnyardgrass damage rating (100=total damage to plant; 0=no damage to plant); for pest or weed control at 62.5 g/ha / pest or weed control at 250 g/ha: evaluated after 13 days; for pest or weed control at 250 g/ha: 250 g ai/ha, read-out: damage to plant, Barnyardgrass (100=total damage to plant; 0=no damage to plant)
In short: as §2

Row | Structure (SMILES) | pest or weed control at 15.625 g/ha [1] [%] | pest or weed control at 62.5 g/ha [1] [%] | pest or weed control at 250 g/ha [1] [%] | pest or weed control at 15.625 g/ha [2] [%] | pest or weed control at 62.5 g/ha [2] [%] | pest or weed control at 250 g/ha [2] [%] | pest or weed control at 15.625 g/ha [3] [%] | pest or weed control at 62.5 g/ha [3] [%] | pest or weed control at 250 g/ha [3] [%] | plant injury at 15.625 g/ha (corn (Zea mays) [4]) [%] | plant injury at 62.5 g/ha (corn (Zea mays) [4]) [%] | plant injury at 250 g/ha (corn (Zea mays) [4]) [%] | pest or weed control at 15.625 g/ha [5] [%] | pest or weed control at 62.5 g/ha [5] [%] | pest or weed control at 250 g/ha [5] [%] | pest or weed control at 15.625 g/ha [6] [%] | pest or weed control at 62.5 g/ha [6] [%] | pest or weed control at 250 g/ha [6] [%] | pest or weed control at 15.625 g/ha [7] [%] | pest or weed control at 62.5 g/ha [7] [%] | other results
1 | CCOC(=O)c1cccc([C@H]2CN(C)C(=O)[C@@H]2C(=O)Nc2ccccc2F)c1 (racemic) [Compound 1438] | 0 | 0 | 20 | 0 | 0 | 0 | 0 | 0 | 0 | 0 | 0 | 0 | 0 | 0 | 0 | 0 | 0 | 0 | 0 | 0 | pest or weed control at 250 g/ha [7]: 0%; pest or weed control at 15.625 g/ha [8]: 0%; pest or weed control at 62.5 g/ha [8]: 0%; pest or weed control at 250 g/ha [8]: 0%; pest or weed control at 15.625 g/ha [9]: 0%; pest or weed control at 62.5 g/ha [9]: 0%; pest or weed control at 250 g/ha [9]: 0%; plant injury at 15.625 g/ha (corn (Zea mays) [10]): 0%; plant injury at 62.5 g/ha (corn (Zea mays) [10]): 0%; plant injury at 250 g/ha (corn (Zea mays) [10]): 0%; pest or weed control at 15.625 g/ha [11]: 0%; pest or weed control at 62.5 g/ha [11]: 0%; pest or weed control at 250 g/ha [11]: 10%; pest or weed control at 15.625 g/ha [12]: 0%; pest or weed control at 62.5 g/ha [12]: 0%; pest or weed control at 250 g/ha [12]: 0%
2 | Cc1cc(Cl)ccc1NC(=O)[C@H]1C(=O)N(C)C[C@@H]1c1ccc(C(F)(F)F)cc1 (racemic) [Compound 1442] | 0 | 0 | 30 | 0 | 0 | 0 | 0 | 0 | 10 | 0 | 0 | 0 | 0 | 0 | 10 | 0 | 0 | 0 | 0 | 0 | pest or weed control at 250 g/ha [7]: 0%; pest or weed control at 15.625 g/ha [8]: 0%; pest or weed control at 62.5 g/ha [8]: 0%; pest or weed control at 250 g/ha [8]: 0%; pest or weed control at 15.625 g/ha [9]: 0%; pest or weed control at 62.5 g/ha [9]: 0%; pest or weed control at 250 g/ha [9]: 0%; plant injury at 15.625 g/ha (corn (Zea mays) [10]): 0%; plant injury at 62.5 g/ha (corn (Zea mays) [10]): 0%; plant injury at 250 g/ha (corn (Zea mays) [10]): 0%; pest or weed control at 15.625 g/ha [11]: 0%; pest or weed control at 62.5 g/ha [11]: 0%; pest or weed control at 250 g/ha [11]: 0%; pest or weed control at 15.625 g/ha [12]: 0%; pest or weed control at 62.5 g/ha [12]: 0%; pest or weed control at 250 g/ha [12]: 0%
3 | C=C(C)c1ccccc1NC(=O)[C@H]1C(=O)N(C)C[C@@H]1c1ccc(C(F)(F)F)cc1 (racemic) [Compound 1449] | 10 | 70 | 80 | 0 | 0 | 0 | 0 | 0 | 0 | 0 | 0 | 0 | 0 | 0 | 0 | 0 | 0 | 30 | 0 | 20 | pest or weed control at 250 g/ha [7]: 60%; pest or weed control at 15.625 g/ha [8]: 0%; pest or weed control at 62.5 g/ha [8]: 0%; pest or weed control at 250 g/ha [8]: 10%; pest or weed control at 15.625 g/ha [9]: 0%; pest or weed control at 62.5 g/ha [9]: 0%; pest or weed control at 250 g/ha [9]: 0%; plant injury at 15.625 g/ha (corn (Zea mays) [10]): 0%; plant injury at 62.5 g/ha (corn (Zea mays) [10]): 0%; plant injury at 250 g/ha (corn (Zea mays) [10]): 10%; pest or weed control at 15.625 g/ha [11]: 0%; pest or weed control at 62.5 g/ha [11]: 0%; pest or weed control at 250 g/ha [11]: 30%; pest or weed control at 15.625 g/ha [12]: 0%; pest or weed control at 62.5 g/ha [12]: 10%; pest or weed control at 250 g/ha [12]: 30%
